Where a name gives a salt, the structure may show the parent alone. Read-outs that look alike come from different tables or passages of the source.
Experiments:
Assay type in all cases: binding
[1] = molecular target: T1, MrpH159 (MrpHntd) (Proteus mirabilis, UniProt B4EUK6); conditions: 10 mM ligand, 10 uM protein, 24 mM NaCl, 6 mM HEPES pH 7.5, reference storage buffer 65.2±0.30 °C
T1 construct: gene mrpH; pEXP5-CT/TOPO (His-tag, Ni-NTA, no cleavage told); expressed in E. coli BL21-AI
Excerpt: thermal shift assay (SYPRO Orange) on MrpH159 (MrpHntd)

[2] = molecular target: T1, MrpH159 (MrpHntd); experiment: X-ray crystal structure, […] Å; conditions: side chain carboxyl ligates Zn2+; ligand not added, picked up during expression, assigned from electron density
[3] = molecular target: T2, MrpH153 (MrpHntd) (Proteus mirabilis, UniProt B4EUK6); experiment: thermal shift assay; conditions: 10 mM ammonium tartrate pH 7.0, 100 mM NaCl; reference 66.7 ± 0.6 °C in 10 mM HEPES pH 7.5
T2 construct: gene mrpH; C-terminal His-tag kept; expressed in E. coli
T2 sequence (B4EUK6 entry or part of it): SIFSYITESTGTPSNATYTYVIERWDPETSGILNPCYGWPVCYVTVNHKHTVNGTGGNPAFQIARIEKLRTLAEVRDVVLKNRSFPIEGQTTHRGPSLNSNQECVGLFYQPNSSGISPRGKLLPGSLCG

T1 sequence (B4EUK6 entry or part of it): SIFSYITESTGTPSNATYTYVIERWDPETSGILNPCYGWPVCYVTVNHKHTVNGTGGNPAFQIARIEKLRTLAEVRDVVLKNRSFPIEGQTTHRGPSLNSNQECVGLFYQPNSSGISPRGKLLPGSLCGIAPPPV

Row | Compound | <Tm> (°C)^a [1] [°C] | <Tm> (°C)^a ([1]; citrate pH not stated) [°C] | X-ray crystal structure, 1.75 Å [2] | Tm [3] [°C]
1 | CC(=O)O [Sodium acetate] | 76.3±0.56 |  |  | 
2 | O=C(O)CC(O)(CC(=O)O)C(=O)O [Sodium citrate] |  | 73.3±0.64 |  | 
3 | O=CO [Sodium formate] | 68.4±0.75 |  |  | 
4 | N[C@@H](CCC(=O)O)C(=O)O [glutamic acid] | 73.1±0.21 |  | we have assigned glutamic acid as the bound ligand in the MrpH159 structure | 
5 | O=C(O)C(O)C(O)C(=O)O (stereo not shown) [tartrate] | 80.1±0.70 |  |  | 78.5 ± 0.1
